Where two headings read alike, the source gives them in different places.
Experiments:
[1] = Indole spot test of supernatants on paper soaked with Indole Reagent; conditions: 4 μL spotted on paper soaked with Indole Reagent
[2] = system: C. difficile carbon sources; experiment: Carbon source utilization, 87 carbon sources in three base media, OD600 and acid production (Example 3B); type: cell-based; parameters: key: “+” and “w” refer to “positive” and “weak” utilization of the carbon source, respectively; “+” and “w” refer to “positive” and “weak” utilization of the carbon source, respectively
Description: Three C. difficile strains and 12 non-C. difficile bacterial strains were profiled using a panel of carbon sources. As used herein, unless otherwise indicated, carbon sources includes all sources tested as growth substrates in the experiments herein. The three C. difficile strains were Clostridium difficile ATCC 9689, Clostridium difficile ATCC 43593, and Clostridium difficile ATCC 43255, all of which are available from the American Type Culture Collection (ATCC).
Growth of the strains was tested on 87 different carbon sources in a 96-well plate format. The panel contained 34 carbon sources reported to be utilized by C. difficile in the literature (Hafiz and Oakley. 1976 J Med Microbiol 9:129-36; Wilson and Perini. 1988 Infection and Immunity 56:2610-14; Bergey and Holt. Bergey's Manual of Determinative Bacteriology. Baltimore: Williams & Wilkins, 1994; Sebaihia et al. 2006 Nature Genetics 38:779-786) including amino acids, mono-, di-, tri- and polysaccharides, glucoside and sugar alcohols. Carbon sources were added at 0.5% into three different base media (Base medium 1 SSNC composition: beef extract 1 g/L, yeast extract 2 g/L, bacto soytone 6 g/L, NaCl 4 g/L, KH2PO4 5.44 g/L, MgSO4 2 mM, CaCl2 1 mM, MnCl2 0.1 mM, cysteine hydrochloride 0.25 g/L, hemin 10 mg/L, menadione 1 mg/L, MOPS 6.3 g/L, pH 7; Base medium 2 SPOSCR composition: beef extract 1 g/L, yeast extract 2 g/L, bacto soytone 6 g/L, NaCl 4 g/L, KH2PO4 5.44 g/L, MgSO4 2 mM, CaCl2) 1 mM, MnCl2 0.1 mM, cysteine hydrochloride 0.25 g/L, hemin 10 mg/L, menadione 1 mg/L, MOPS 8.4 g/L, NaHCO3 0.4%, pH 7; Base medium 3 YCFA: casitone 10 g/L, yeast extract 2.5 g/L, cysteine hydrochloride 1 g/L, hemin 10 mg/L, ATCC vitamin solution 10 mL/L, ATCC trace element solution 10 mL/L, K2HPO4 0.45 g/L, KH2PO4 0.45 g/L, (NH4)2SO4 0.9 g/L, MgSO4×7H2O 90 mg/L, CaCl2) 90 mg/L, acetic acid 33 mM, propionic acid 9 mM, isobutyric acid 1 mM, isovaleric acid 1 mM, valeric acid 1 mM, pH 7).
Positive growth was scored by measuring optical density at 600 nm and comparing it to growth in base medium without an added carbon source. For two, base media acid production was also scored by measuring optical density at 558 nm of pH-indicator phenol red mixed with spent medium from each culture.

[3] = system: HSDH activity (7-, 3- or 12-hydroxyl groups) on cholic, chenodeoxycholic, deoxycholic and lithocholic acid; experiment: LC-MS screen for hydroxysteroid dehydrogenase (HSDH) activity; type: biochemical
[4] = system: 7α-dehydroxylation of cholic acid and chenodeoxycholic acid; experiment: LC-MS screen for 7α-dehydroxylation (7α-OH) activity; type: biochemical
[5] = system: bile salt hydrolase (BSH) activity on conjugated bile acids; experiment: LC-MS screen for bile salt hydrolase (BSH) activity; conditions: for BSH gCA: substrate gCA; for BSH gCDCA: substrate gCDCA; for BSH t-aMCA: substrate t-aMCA; for BSH t-bMCA: substrate t-bMCA; for BSH tCA: substrate tCA; for BSH tCDCA: substrate tCDCA
Description: To conduct the assay, briefly, bacteria were grown on permissive agar media plates for 24 to 48 hours to generate sufficient biomass to carry out assays. The bacterial lawns were resuspended in PBS to create a homogenous suspension that was then used for the BSH assay. To assay for BSH activity, bacterial suspensions were incubated with two separate mixtures of four distinct conjugated bile acids, each at concentration of 150 μg/ml, for 4 hours at 37° C. under anaerobic conditions. The reaction mixture was then extracted with an equal volume of acetonitrile, spun down to pellet bacteria and the supernatant filtered through a 0.2 μM filter to generate a sample for LC-MS analysis. Bile acids were determined using an Agilent 1260 HPLC coupled to a Bruker Compact qTOF MS. Samples were run on a bidentate C18 column using an acetonitrile:water buffer system to separate bile acids which were then ionized in negative mode and identified using a qTOF-MS. BSH activity was determined by the formation of deconjugated bile acid products that were verified by comparison to known standards and quantified, if necessary, using standard curves.

[6] = system: HDAC enzymes (HeLa nuclear extract); experiment: HDAC-Glo I/II assay with serial dilutions of SCFAs; type: biochemical; conditions: for HDAC inhibition activity at the highest tested concentration: 3.75 mM
Description: For this experiment, the HeLa nuclear extract provided in the kit was used as the source of HDAC enzymes. […] In this assay, deacetylation of the provided substrate by HDACs results in a luminescence signal that is detected with a suitable plate reader (Spectramax m5). HDAC inhibition decreases the luminescence signal compared to the no inhibitor control. The experiment was carried out according to the manufacturer's instructions as follows: 50 μL of HeLa nuclear extract diluted 1:3000 in assay buffer was mixed with 50 μL of inhibitor solution (serial dilutions of SCFAs in assay buffer) and incubated for 30 minutes. 100 μL of developer solution were added to each well, and luminescence was measured after 45 minutes of incubation at room temperature.

[7] = LC-MS, substrate chenodeoxycholic acid

## O=C(O)CCc1c[nH]c2ccccc12 [indole-3-propionic acid]
[1]
  colour in indole spot test: purple spots

## NCCc1c[nH]c2ccccc12 [tryptamine]
[1]
  colour in indole spot test: purple spots

## Blautia producta
[2]; Apple pectin
  utilization of carbon source Apple pectin: +
[2]; Citrus pectin
  utilization of carbon source Citrus pectin: +
[2]; NAG (N-acetylglucosamine)
  utilization of carbon source NAG: +
[2]; alanine
  utilization of carbon source alanine: +
[2]; asparagine
  utilization of carbon source asparagine: +
[2]; cellobiose
  utilization of carbon source cellobiose: +
[2]; cysteine
  utilization of carbon source cysteine: w
[2]; dulcitol
  utilization of carbon source dulcitol: +
[2]; esculin
  utilization of carbon source esculin: +
[2]; formate
  utilization of carbon source formate: +
[2]; fructose
  utilization of carbon source fructose: +
[2]; glucose
  utilization of carbon source glucose: +
[2]; glutamine
  utilization of carbon source glutamine: w
[2]; glycochenodeoxycholate
  utilization of carbon source glycochenodeoxycholate: w
[2]; mannitol
  utilization of carbon source mannitol: +
[2]; mannose
  utilization of carbon source mannose: +
[2]; melezitose
  utilization of carbon source melezitose: +
[2]; oxalate
  utilization of carbon source oxalate: w
[2]; polygalacturonate
  utilization of carbon source polygalacturonate: +
[2]; rhamnose
  utilization of carbon source rhamnose: +
[2]; ribose
  utilization of carbon source ribose: +
[2]; salicin
  utilization of carbon source salicin: +
[2]; serine
  utilization of carbon source serine: +
[2]; sialic acid
  utilization of carbon source sialic acid: +
[2]; sorbitol
  utilization of carbon source sorbitol: +
[2]; sucrose
  utilization of carbon source sucrose: +
[2]; taurochenodeoxycholate
  utilization of carbon source taurochenodeoxycholate: w
[2]; threonine
  utilization of carbon source threonine: w
[2]; trehalose
  utilization of carbon source trehalose: +
[2]; xylitol
  utilization of carbon source xylitol: +
[2]; xylose
  utilization of carbon source xylose: +
[3]; LC-MS
  HSDH 3a: −
  HSDH 7a: −
  HSDH 12a: −
[4]; LC-MS, substrate CA
  7a Dehydrox CA: −
[4]; LC-MS, substrate CDCA
  7a Dehydrox CDCA: −
[5]
  BSH gCA: −
  BSH gCDCA: −
  BSH t-aMCA: −
  BSH t-bMCA: −
  BSH tCA: −
  BSH tCDCA: −

## c1ccc2[nH]ccc2c1 [Indole, indole]
[1]
  colour in indole spot test: light blue color

## Clostridium butyricum
[3]
  HSDH 3a: −
  HSDH 12a: −
[4]
  7a Dehydrox CA: −
  7a Dehydrox CDCA: −

## CC(=O)O [acetate]
[6]
  HDAC inhibition activity at the highest tested concentration: minimal HDAC inhibition activity

## CC(O)C(=O)O (centres unmarked) [Lactate]
[6]
  HDAC inhibition activity at the highest tested concentration: minimal HDAC inhibition activity

## Cc1c[nH]c2ccccc12 [3-methyl-indole]
[1]
  colour in indole spot test: purple spots

## Clostridium paraputrificum
[5]
  BSH gCA: + (‘+’ indicates greater than 50-fold increase in levels of product bile acid, suggesting strong activity)
  BSH gCDCA: + (‘+’ indicates greater than 50-fold increase in levels of product bile acid, suggesting strong activity)
  BSH t-aMCA: + (‘+’ indicates greater than 50-fold increase in levels of product bile acid, suggesting strong activity)
  BSH t-bMCA: + (‘+’ indicates greater than 50-fold increase in levels of product bile acid, suggesting strong activity)
  BSH tCA: + (‘+’ indicates greater than 50-fold increase in levels of product bile acid, suggesting strong activity)
  BSH tCDCA: + (‘+’ indicates greater than 50-fold increase in levels of product bile acid, suggesting strong activity)

## Clostridium symbiosum
[3]; LC-MS, 3a-HSDH
  HSDH 3a: +/− (‘+/−’ indicates ≤50-fold change in product bile acid levels, suggesting weak activity)
[3]; LC-MS, 7a-HSDH
  HSDH 7a: + (‘+’ indicates greater than 50-fold increase in levels of product bile acid, suggesting strong activity)
[3]; LC-MS, 12a-HSDH
  HSDH 12a: −
[4]; [7]
  7a Dehydrox CDCA: −
[4]; LC-MS, substrate cholic acid
  7a Dehydrox CA: −
[5]
  BSH gCA: +/− (‘+/−’ indicates ≤50-fold change in product bile acid levels, suggesting weak activity)
  BSH gCDCA: + (‘+’ indicates greater than 50-fold increase in levels of product bile acid, suggesting strong activity)
  BSH t-aMCA: −
  BSH t-bMCA: −
  BSH tCA: −
  BSH tCDCA: +/− (‘+/−’ indicates ≤50-fold change in product bile acid levels, suggesting weak activity)

## Clostridium_sordellii
[3]; LC-MS, 3a-HSDH
  HSDH 3a: +/− (‘+/−’ indicates ≤50-fold change in product bile acid levels, suggesting weak activity)
[3]; LC-MS, 7a-HSDH
  HSDH 7a: −
[3]; LC-MS, 12a-HSDH
  HSDH 12a: −
[4]; [7]
  7a Dehydrox CDCA: −
[4]; LC-MS, substrate cholic acid
  7a Dehydrox CA: −
[5]
  BSH gCA: + (‘+’ indicates greater than 50-fold increase in levels of product bile acid, suggesting strong activity)
  BSH gCDCA: + (‘+’ indicates greater than 50-fold increase in levels of product bile acid, suggesting strong activity)
  BSH t-aMCA: + (‘+’ indicates greater than 50-fold increase in levels of product bile acid, suggesting strong activity)
  BSH t-bMCA: + (‘+’ indicates greater than 50-fold increase in levels of product bile acid, suggesting strong activity)
  BSH tCA: + (‘+’ indicates greater than 50-fold increase in levels of product bile acid, suggesting strong activity)
  BSH tCDCA: + (‘+’ indicates greater than 50-fold increase in levels of product bile acid, suggesting strong activity)

## Clostridium_glycolicum
[5]
  BSH gCA: + (‘+’ indicates greater than 50-fold increase in levels of product bile acid, suggesting strong activity)
  BSH gCDCA: + (‘+’ indicates greater than 50-fold increase in levels of product bile acid, suggesting strong activity)
  BSH t-aMCA: + (‘+’ indicates greater than 50-fold increase in levels of product bile acid, suggesting strong activity)
  BSH t-bMCA: + (‘+’ indicates greater than 50-fold increase in levels of product bile acid, suggesting strong activity)
  BSH tCA: + (‘+’ indicates greater than 50-fold increase in levels of product bile acid, suggesting strong activity)
  BSH tCDCA: + (‘+’ indicates greater than 50-fold increase in levels of product bile acid, suggesting strong activity)

## O=C(O)CCCc1c[nH]c2ccccc12 [indole-3-butyric acid]
[1]
  colour in indole spot test: purple spots

## CCC(=O)O [propionate]
[6]; HeLa nuclear extract, HDAC-Glo I/II, read-out: HDAC inhibition IC50
  IC50: 2400 µM

## Clostridium sp_7_2_43FAA
[3]; LC-MS, 3a-HSDH
  HSDH 3a: +/− (‘+/−’ indicates ≤50-fold change in product bile acid levels, suggesting weak activity)
[3]; LC-MS, 7a-HSDH
  HSDH 7a: + (‘+’ indicates greater than 50-fold increase in levels of product bile acid, suggesting strong activity)
[3]; LC-MS, 12a-HSDH
  HSDH 12a: −
[4]; [7]
  7a Dehydrox CDCA: −
[4]; LC-MS, substrate cholic acid
  7a Dehydrox CA: −

## Blautia_producta
[3]; LC-MS, 3a-HSDH
  HSDH 3a: −
[3]; LC-MS, 7a-HSDH
  HSDH 7a: −
[3]; LC-MS, 12a-HSDH
  HSDH 12a: −
[4]; [7]
  7a Dehydrox CDCA: −
[4]; LC-MS, substrate cholic acid
  7a Dehydrox CA: −
